According to paper PMC4128046, “Effect of a toggle switch mutation in TM6 of the human adenosine A3 receptor on Gi protein-dependent signalling and Gi-independent receptor internalization” (British Journal of Pharmacology, 2014):
Changes are numbered by the printed parent chain.

How the values were obtained:
A3-YFP = target: T1, A3-YFP (Homo sapiens, UniProt P0DMS8); experiment: Fluorescence-based competition binding assay with CA200645, A3-YFP; details: A3-YFP cells, 25 nM CA200645, 60 min, 37°C
T1 construct: cDNA encoding the full length human A3 receptor; expressed in transfected cells
T1 sequence (P0DMS8 1-318): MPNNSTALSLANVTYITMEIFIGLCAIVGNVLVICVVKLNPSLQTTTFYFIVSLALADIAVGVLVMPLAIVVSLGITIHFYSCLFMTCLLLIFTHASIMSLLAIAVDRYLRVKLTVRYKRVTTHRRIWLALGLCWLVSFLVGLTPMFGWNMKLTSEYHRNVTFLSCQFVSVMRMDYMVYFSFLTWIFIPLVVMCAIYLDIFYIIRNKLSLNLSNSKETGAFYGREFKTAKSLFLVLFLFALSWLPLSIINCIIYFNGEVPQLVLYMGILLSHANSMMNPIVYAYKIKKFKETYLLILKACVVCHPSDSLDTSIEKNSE
Description: (§1) On the day of analysis, normal growth medium was removed and cells washed once with HBSS pre-warmed to 37°C. […] Buffer was then removed from each well, cells washed once in HBSS and fresh HBSS added at room temperature. Plates were immediately imaged using an ImageXpress Ultra confocal plate reader, which captured four central images per well using a Plan Fluor 40× NA0.6 extra-long working distance objective. CA200645 was excited at 635 nm and emission collected through a 640–685 nm band pass filter. Total image intensity was obtained using a multiwave length cell scoring algorithm within MetaXpress software (Molecular Devices).
(§2) Time course experiments were fitted using a one phase association equation which is as follows [drawing 2] where Yo represents the level of internalization at time (t) equal to zero, Plateau is the maximal internalization at infinite time and K is the rate constant in […]. Statistical significance was determined by Student's unpaired t-test or by one-way ANOVA with Dunnett's post hoc analysis and P < 0.05 was considered statistically significant.

A3 W243F-YFP [1] = target: T2, A3 W243F-YFP (Homo sapiens, UniProt P0DMS8, W243F); experiment: Fluorescence-based competition binding assay with CA200645, A3 W243F-YFP; details: A3 W243F-YFP cells, 25 nM CA200645, 60 min, 37°C
T2 construct: Full length A3 W243F-YFP was excised and subcloned into a native pcDNA3.1 vector; expressed in transfected cells
T2 sequence (P0DMS8 1-318 W243F): T1 sequence (P0DMS8 1-318) with W243F
Description: as §1, §2

A3 W243F-YFP [2] = target: T2, A3 W243F-YFP; experiment: ERK1/2 phosphorylation assay (AlphaScreen SureFire), A3 W243F-YFP; assay type: cell-based
Description: Normal growth medium was replaced with serum-free medium for at least 4 h before analysis. Levels of ERK1/2 phosphorylation were measured using the AlphaScreen SureFire p-ERK assay kit (PerkinElmer). […] Medium was removed from each well and replaced with 40 μL SureFire lysis buffer. After shaking for 5 min, a 1:80:20:120 v v^−1 dilution of AlphaScreen beads : lysate : activation buffer : reaction buffer in a 5.5 μL total volume was transferred to a white opaque 384-well proxiplate in diminished light. After 2 h of incubation in the dark at room temperature, the fluorescence signal was measured with an EnVision plate reader (PerkinElmer) using standard AlphaScreen settings.
A basal and FSK control was included in each separate concentration-response CRE-SPAP gene transcription assay and cAMP accumulation assay to allow the responses in each cell line to be expressed as an inhibition of FSK-stimulated SPAP production.

- Ki (A3-YFP): 33.1 nM
- Ki (A3 W243F-YFP [1]): 45.7 nM
- EC50 (A3 W243F-YFP [2]; A3 W243F-YFP cells, 5 min stimulation, read-out: pEC50 (pERK1/2 assay) (converted)): 19.5 nM
- Emax (A3 W243F-YFP [2]; read-out: Maximum response (% 10 μM NECA), pERK1/2 assay): 16 ± 3.1%
Compound: CCCCC#Cc1nc(NC)c2ncn([C@@H]3O[C@H](CO)[C@@H](O)[C@H]3O)c2n1 [HEMADO, 2-(1-hexynyl)-N-methyladenosine]
